Source: patent US9795140B2, “Molecules having pesticidal utility, and intermediates, compositions, and processes, related thereto” (priority 2015, dated 2017)
Read-outs that look alike come from different tables or passages of the source.

How the values were obtained:
Type in all cases: in vivo
[1] = system: Beet Armyworm (Spodoptera exigua, LAPHEG); test: Bioassay on Beet Armyworm (BAW), 128-well diet tray assay; details: 168 h, read-out: BAW % Control (or Mortality) rating
How it was run: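 Test molecule dissolved in acetone-water 90:10 is applied at 50 μg/cm^2 onto artificial diet and allowed to dry. Second instar larvae, one to five per well, are then added, and trays are vented and kept at 25° C. for five to seven days before mortality is scored.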

[2] = system: Cabbage Looper (Trichoplusia ni, TRIPNI); test: Bioassay on Cabbage Looper (CL), 128-well diet tray assay; details: 168 h, read-out: CL % Control (or Mortality) rating
How it was run: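 Percent larval mortality, averaged across eight replicate wells, was scored after 5–7 days at 25 °C with a 14:10 photoperiod. Each well held 1 mL diet surface-treated at 50 μg/cm^2 with test molecule from a 90:10 acetone-water solution, then dried. Wells were infested with one to five second-instar cabbage loopers.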

[3] = system: Yellow Fever Mosquito (Aedes aegypti, AEDSAE); test: Bioassay on Yellow Fever Mosquito (YFM) larvae, 96-well plate; details: about 1 day-old larvae, room temperature, 3 days, scored on mortality
How it was run: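 Aedes aegypti larvae (about 1 day old) in liver-powder water were added to plates dispensed from DMSO master plates (4000 ppm stock) diluted with 90:10 water/acetone; six replicate plates per master. Lidded plates were held at room temperature for 3 days, then each well was scored for mortality.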

[4] = 50 μg/cm^2 on artificial diet, second instar larvae, 25° C., five to seven days, average of eight wells

| Structure (SMILES) | mortality at 50 µg/cm2 [1, 4] | mortality at 50 µg/cm2 [2, 4] | YFM % Control (or Mortality) rating [3] | mortality at 50 µg/cm2 [1] | mortality at 50 µg/cm2 [2] |
| --- | --- | --- | --- | --- | --- |
| O=C(NCC(F)(F)F)c1cc(NC(=O)[C@H]2[C@H](c3ccc(F)c(Cl)c3)C2(Cl)Cl)ccc1Cl (relative stereo) [F105, trans-2-Chloro-5-(2,2-dichloro-3-(3-chloro-4-fluorophenyl)cyclopropane-1-carboxamido)-N-(2,2,2-trifluoroethyl)benzamide] | 50 to 100% | 50 to 100% | A (80-100) | – | – |
| CCCNC(=O)c1cc(NC(=O)[C@H]2[C@H](c3ccc(F)c(Cl)c3)C2(Cl)Cl)ccc1Cl (relative stereo) [F106, trans-2-Chloro-5-(2,2-dichloro-3-(3-chloro-4-fluorophenyl)cyclopropane-1-carboxamido)-N-propylbenzamide] | 50 to 100% | 50 to 100% | A (80-100) | – | – |
| O=C(NCCC(F)(F)F)c1cc(NC(=O)[C@H]2[C@H](c3ccc(F)c(Cl)c3)C2(Cl)Cl)ccc1Cl (relative stereo) [F107, trans-2-Chloro-5-(2,2-dichloro-3-(3-chloro-4-fluorophenyl)cyclopropane-1-carboxamido)-N-(3,3,3-trifluoropropyl)benzamide] | 50 to 100% | 50 to 100% | B (More than 0-Less than 80) | – | – |
| O=C(NCC(F)(F)F)c1cc(NC(=O)[C@H]2[C@H](c3ccc(F)c(F)c3)C2(Cl)Cl)ccc1Cl (relative stereo) [F108, 2-chloro-5-(trans-2,2-dichloro-3-(3,4-difluorophenyl)cyclopropane-1-carboxamido)-N-(2,2,2-trifluoroethyl)benzamide] | – | – | A (80-100) | 50 to 100% | 50 to 100% |
| O=C(NCC(F)(F)F)c1cc(NC(=O)[C@H]2[C@H](c3ccc(Cl)c(Br)c3)C2(Cl)Cl)ccc1Cl (relative stereo) [F109, 5-(trans-3-(3-Bromo-4-chlorophenyl)-2,2-dichlorocyclopropane-1-carboxamido)-2-chloro-N-(2,2,2-trifluoroethyl)benzamide] | 50 to 100% | 50 to 100% | A (80-100) | – | – |
| O=C(NCC(F)(F)F)c1cc(NC(=O)[C@H]2[C@H](c3ccc(Br)c(Br)c3)C2(Cl)Cl)ccc1Cl (relative stereo) [F111, 2-Chloro-5-(trans-2,2-dichloro-3-(3,4-dibromophenyl)cyclopropane-1-carboxamido)-N-(2,2,2-trifluoroethyl)benzamide] | 50 to 100% | 50 to 100% | A (80-100) | – | – |
| O=C(NCC(F)(F)F)c1cc(NC(=O)[C@H]2[C@H](c3ccc(C(F)(F)F)c(F)c3)C2(Cl)Cl)ccc1Cl (relative stereo) [F112, 2-Chloro-5-(trans-2,2-dichloro-3-(3-fluoro-4-(trifluoromethyl)phenyl)cyclopropane-1-carboxamido)-N-(2,2,2-trifluoroethyl)benzamide] | 50 to 100% | 50 to 100% | A (80-100) | – | – |
| O=C(NCC(F)(F)F)c1cc(NC(=O)[C@H]2[C@H](c3ccc(Br)c(F)c3)C2(Cl)Cl)ccc1Cl (relative stereo) [F113, 5-(trans-3-(4-Bromo-3-fluorophenyl)-2,2-dichlorocyclopropane-1-carboxamido)-2-chloro-N-(2,2,2-trifluoroethyl)benzamide] | 50 to 100% | 50 to 100% | A (80-100) | – | – |
| O=C(NCC(F)(F)F)c1cc(NC(=O)[C@H]2[C@H](c3ccc(C(F)(F)F)c(Br)c3)C2(Cl)Cl)ccc1Cl (relative stereo) [F114, 5-(trans-3-(3-Bromo-4-(trifluoromethyl)phenyl)-2,2-dichlorocyclopropane-1-carboxamido)-2-chloro-N-(2,2,2-trifluoroethyl)benzamide] | 50 to 100% | 50 to 100% | A (80-100) | – | – |
| O=C(NCC(F)(F)F)c1cc(NC(=O)[C@H]2[C@H](c3ccc(Br)c(C(F)(F)F)c3)C2(Cl)Cl)ccc1Cl (relative stereo) [F115, 5-(trans-3-(4-Bromo-3-(trifluoromethyl)phenyl)-2,2-dichlorocyclopropane-1-carboxamido)-2-chloro-N-(2,2,2-trifluoroethyl)benzamide] | 50 to 100% | 50 to 100% | A (80-100) | – | – |
| O=C(NCC(F)(F)F)c1cc(NC(=O)[C@H]2[C@H](c3ccc(C(F)(F)F)c(Cl)c3)C2(Cl)Cl)ccc1Cl (relative stereo) [F116, 2-Chloro-5-(trans-2,2-dichloro-3-(3-chloro-4-(trifluoromethyl)phenyl)cyclopropane-1-carboxamido)-N-(2,2,2-trifluoroethyl)benzamide] | 50 to 100% | 50 to 100% | A (80-100) | – | – |
| O=C(NCC(F)(F)F)c1cc(NC(=O)[C@H]2[C@H](c3ccc(Cl)c(C(F)(F)F)c3)C2(Cl)Cl)ccc1Cl (relative stereo) [F117, 2-Chloro-5-(trans-2,2-dichloro-3-(4-chloro-3-(trifluoromethyl)phenyl)cyclopropane-1-carboxamido)-N-(2,2,2-trifluoroethyl)benzamide] | 50 to 100% | 50 to 100% | A (80-100) | – | – |
| O=C(NCC(F)(F)F)c1cc(NC(=O)[C@H]2[C@H](c3ccc(F)c(Br)c3)C2(Cl)Cl)ccc1Cl (relative stereo) [F118, 5-(trans-3-(3-Bromo-4-fluorophenyl)-2,2-dichlorocyclopropane-1-carboxamido)-2-chloro-N-(2,2,2-trifluoroethyl)benzamide] | 50 to 100% | 50 to 100% | A (80-100) | – | – |
| O=C(NCC(F)(F)F)c1cc(NC(=O)[C@H]2[C@H](c3ccc(F)c(C(F)(F)F)c3)C2(Cl)Cl)ccc1Cl (relative stereo) [F119, 2-Chloro-5-(trans-2,2-dichloro-3-(4-fluoro-3-(trifluoromethyl)phenyl)cyclopropane-1-carboxamido)-N-(2,2,2-trifluoroethyl)benzamide] | 50 to 100% | 50 to 100% | A (80-100) | – | – |
| O=C(NCC(F)(F)F)c1cc(NC(=O)[C@H]2[C@H](c3ccc(Cl)c(F)c3)C2(Cl)Cl)ccc1Cl (relative stereo) [F120, 2-Chloro-5-(trans-2,2-dichloro-3-(4-chloro-3-fluorophenyl)cyclopropane-1-carboxamido)-N-(2,2,2-trifluoroethyl)benzamide] | 50 to 100% | 50 to 100% | A (80-100) | – | – |
| O=C(NCC(F)(F)F)c1cc(NC(=O)[C@H]2[C@H](c3cc(F)cc(F)c3)C2(Cl)Cl)ccc1Cl (relative stereo) [F121, 2-Chloro-5-(trans-2,2-dichloro-3-(3,5-difluorophenyl)cyclopropane-1-carboxamido)-N-(2,2,2-trifluoroethyl)benzamide] | 50 to 100% | 50 to 100% | A (80-100) | – | – |
| O=C(NCC(F)(F)F)c1cc(NC(=O)[C@H]2[C@H](c3cc(F)cc(C(F)(F)F)c3)C2(Cl)Cl)ccc1Cl (relative stereo) [F122, 2-Chloro-5-(trans-2,2-dichloro-3-(3-fluoro-5-(trifluoromethyl)phenyl)cyclopropane-1-carboxamido)-N-(2,2,2-trifluoroethyl)benzamide] | 50 to 100% | 50 to 100% | A (80-100) | – | – |
| O=C(NCC(F)(F)F)c1cc(NC(=O)[C@H]2[C@H](c3cc(F)cc(Br)c3)C2(Cl)Cl)ccc1Cl (relative stereo) [F123, 5-(trans-3-(3-Bromo-5-fluorophenyl)-2,2-dichlorocyclopropane-1-carboxamido)-2-chloro-N-(2,2,2-trifluoroethyl)benzamide] | 50 to 100% | 50 to 100% | A (80-100) | – | – |
| O=C(NCC(F)(F)F)c1cc(NC(=O)[C@H]2[C@H](c3cc(Br)cc(C(F)(F)F)c3)C2(Cl)Cl)ccc1Cl (relative stereo) [F124, 5-(trans-3-(3-Bromo-5-(trifluoromethyl)phenyl)-2,2-dichlorocyclopropane-1-carboxamido)-2-chloro-N-(2,2,2-trifluoroethyl)benzamide] | 50 to 100% | 50 to 100% | A (80-100) | – | – |
| O=C(NCC(F)(F)F)c1cc(NC(=O)[C@H]2[C@H](c3cc(Cl)cc(C(F)F)c3)C2(Cl)Cl)ccc1Cl (relative stereo) [F128, 2-Chloro-5-(trans-2,2-dichloro-3-(3-chloro-5-(difluoromethyl)phenyl)cyclopropane-1-carboxamido)-N-(2,2,2-trifluoroethyl)benzamide] | 50 to 100% | 50 to 100% | A (80-100) | – | – |
